Common to all, as to assay: NCI 60 cell line single dose screen (SRB)
What all share (format): cell-based

The test system of one assay is SK-MEL-2. The note with it: Homo sapiens; SK-MEL-2 (melanoma), single dose 10^−5 M, 48 h; read-out: Growth inhibition percentage. As for the experimental part: (§1) Anticancer activity screening of the newly synthesised compounds was measured in vitro utilising 60 different human tumour cell lines provided by US National Cancer Institute according to previously reported standard procedure[27–29] as follows: Cells are inoculated into 96-well microtitre plates in 100 ml. After cell inoculation, the microtitre plates are incubated at 37 °C, 5% CO2, 95% air and 100% relative humidity for 24 h prior to addition of experimental compounds. After 24 h, two plates of each cell line are fixed in situ with TCA, to represent a measurement of the cell population for each cell line at the time of drug addition (Tz). Experimental compounds are solubilised in dimethyl sulphoxide at 400-fold the desired final maximum test concentration and stored frozen prior to use. At the time of compound addition, an aliquot of frozen concentrate is thawed and diluted to twice the desired final maximum test concentration with complete medium containing […] gentamicin. Aliquots of […] of the compounds dilutions are added to the appropriate microtitre wells already containing 100 ml of medium, resulting in the required final compound concentration. Following compound addition, the plates are incubated for an additional 48 h at 37 °C, 5% CO2, 95% air, and 100% relative humidity. For adherent cells, the assay is terminated by the addition of cold trichloroacetic acid (TCA). Cells are fixed in situ by the gentle addition of 50 ml of cold 50% (w/v) TCA (final concentration, 10% TCA) and incubated for 60 min at 4 °C. The supernatant is discarded, and the plates are washed five times with tap water and air-dried. Sulphorhodamine B (SRB) solution (100 ml) at 0.4% (w/v) in 1% acetic acid is added to each well, and plates are incubated for 10 min at room temperature. After staining, unbound dye is removed by washing five times with 1% acetic acid and the plates are air-dried. Bound stain is subsequently solubilised with 10 mM trizma base, and the absorbance is read on an automated plate reader at a wavelength of 515 nm. For suspension cells, the methodology is the same except that the assay is terminated by fixing settled cells at the bottom of the wells by gently adding 50 ml of 80% TCA (final concentration, 16% TCA). Using the absorbance measurements [time zero, (Tz), control growth, (C), and test growth in the presence of compound (Ti)], the percentage growth is calculated for each compound. Percentage growth inhibition is calculated as: [(Ti – Tz)/(C – Tz)] x 100 for concentrations for which Ti >/=Tz. [(Ti – Tz)/Tz] x 100 for concentrations for which Ti < Tz.

In a further assay the test system is HCC-2998. The note with it: Homo sapiens; HCC-2998 (colon cancer), single dose 10^−5 M, 48 h; read-out: Growth inhibition percentage. The protocol: as §1
A further assay relates to UACC-257. The note with it: Homo sapiens; UACC-257 (melanoma), single dose 10^−5 M, 48 h; read-out: Growth inhibition percentage. As for the experimental part: as §1
A further assay deals with NCI-H460. Particulars: Homo sapiens; NCI-H460 (non-small cell lung cancer), single dose 10^−5 M, 48 h; read-out: Growth inhibition percentage. The protocol:
as §1

Another assay has as its system ACHN. The note with it: Homo sapiens; ACHN (renal cancer), single dose 10^−5 M, 48 h; read-out: Growth inhibition percentage. As for the experimental part:
as §1

The next assay relates to KM12. The note with it: Homo sapiens; KM12 (colon cancer), single dose 10^−5 M, 48 h; read-out: Growth inhibition percentage. As for the experimental part: as §1
For the next assay, the system named is SW-620. Particulars: Homo sapiens; SW-620 (colon cancer), single dose 10^−5 M, 48 h; read-out: Growth inhibition percentage. As for the experimental part:
as §1

In a further assay the test system is NCI-H23. Particulars: Homo sapiens; NCI-H23 (non-small cell lung cancer), single dose 10^−5 M, 48 h; read-out: Growth inhibition percentage. As for the experimental part: as §1
Another assay deals with PC-3. The note with it: Homo sapiens; PC-3 (prostate cancer), single dose 10^−5 M, 48 h; read-out: Growth inhibition percentage. As for the experimental part:
as §1

The next assay relates to RXF 393. Particulars: Homo sapiens; RXF 393 (renal cancer), single dose 10^−5 M, 48 h; read-out: Growth inhibition percentage. As for the experimental part: as §1
The subject of a further assay is RPMI-8226. The note with it: Homo sapiens; RPMI-8226 (leukemia), single dose 10^−5 M, 48 h; read-out: Growth inhibition percentage. The protocol:
as §1

The subject of the next assay is MDA-MB-435. Particulars: Homo sapiens; MDA-MB-435 (melanoma), single dose 10^−5 M, 48 h; read-out: Growth inhibition percentage. The protocol:
as §1

Another assay concerns U251. Particulars: Homo sapiens, U-251; U251 (CNS cancer), single dose 10^−5 M, 48 h; read-out: Growth inhibition percentage. As for the experimental part: as §1
A further assay has as its system SR. Particulars: Homo sapiens; SR (leukemia), single dose 10^−5 M, 48 h; read-out: Growth inhibition percentage. As for the experimental part: as §1
For the next assay, the system named is HT29. Particulars: Homo sapiens, HT-29; HT29 (colon cancer), single dose 10^−5 M, 48 h; read-out: Growth inhibition percentage. The protocol: as §1
Another assay has as its system SF-295. The note with it: Homo sapiens; SF-295 (CNS cancer), single dose 10^−5 M, 48 h; read-out: Growth inhibition percentage. As for the experimental part:
as §1

For another assay, the system named is SK-MEL-5. The note with it: Homo sapiens; SK-MEL-5 (melanoma), single dose 10^−5 M, 48 h; read-out: Growth inhibition percentage. As for the experimental part:
as §1

Another assay deals with SF-268. Particulars: Homo sapiens; SF-268 (CNS cancer), single dose 10^−5 M, 48 h; read-out: Growth inhibition percentage. As for the experimental part: as §1
The next assay has as its system NCI/ADR-RES. Particulars: Homo sapiens; NCI/ADR-RES (ovarian cancer), single dose 10^−5 M, 48 h; read-out: Growth inhibition percentage. As for the experimental part: as §1
Another assay deals with OVCAR-5. Particulars: Homo sapiens; OVCAR-5 (ovarian cancer), single dose 10^−5 M, 48 h; read-out: Growth inhibition percentage. As for the experimental part: as §1
For a further assay, the system named is MOLT-4. The note with it: Homo sapiens; MOLT-4 (leukemia), single dose 10^−5 M, 48 h; read-out: Growth inhibition percentage. The protocol: as §1

Experimental findings from PMC6352943, “Novel pyrazolo[3,4-d]pyrimidines: design, synthesis, anticancer activity, dual EGFR/ErbB2 receptor tyrosine kinases inhibitory activity, effects on cell cycle profile and caspase-3-mediated apoptosis” (Journal of Enzyme Inhibition and Medicinal Chemistry, 2019) are described below.

By inhibition is commonly meant the drop in the measured response relative to a control, in per cent. `Cc1nn(-c2ccc(F)cc2)c2ncnc(Cl)c12` [Compound 6, 4-Chloro-1–(4-fluorophenyl)-3-methyl-1H-pyrazolo[3,4-d]pyrimidine]: the inhibition at 10 µM in the assay on SK-MEL-2 is 11%; in the assay with HCC-2998, -5.66%; in the assay on UACC-257, 17.4%; in the assay with NCI-H460, -0.07%; with ACHN it was 4.11%; in the assay on KM12, 0.99%. The inhibition at 10 µM is -2.88% with SW-620; 7.86% in the assay on NCI-H23; 14.8% with PC-3; -3.61% in the assay with RXF 393; 2.21% with RPMI-8226; -8.83% in the assay on MDA-MB-435. Also, the inhibition at 10 µM is 5.15% in the assay on U251; 14.4% with SR; 9.55% in the assay on HT29; -4.11% with SF-295; 5.94% in the assay on SK-MEL-5; -1.16% in the assay on SF-268. For the same compound, the inhibition at 10 µM is -8.11% in the assay with NCI/ADR-RES, -12.3% in the assay with OVCAR-5 and 13.8% in the assay on MOLT-4.
Take `COc1cc(C=NNc2ncnc3c2c(C)nn3-c2ccc(F)cc2)cc(OC)c1OC` [Compound 10c, 1–(4-Fluorophenyl)-3-methyl-4–(2-(3,4,5-trimethoxybenzylidene)-hydrazinyl)-1H-pyrazolo[3,4-d]pyrimidine]: the inhibition at 10 µM is -1.74% in the assay with SK-MEL-2; 2.74% with HCC-2998; 0.35% in the assay with UACC-257; -3.23% in the assay on NCI-H460; 4.01% in the assay on ACHN; 5.82% with KM12. Also, the inhibition at 10 µM is -11.7% with SW-620; 14.2% in the assay on NCI-H23; 16.5% in the assay on PC-3; 3.39% in the assay with RXF 393; 1.29% in the assay with RPMI-8226; -2.02% with MDA-MB-435. The inhibition at 10 µM was 0.92% in the assay with U251; 13.7% in the assay on SR; 8.83% in the assay on HT29; -2.66% in the assay on SF-295; 15.3% with SK-MEL-5; 6.35% in the assay on SF-268. In addition, the inhibition at 10 µM in the assay on NCI/ADR-RES is -2.25%; in the assay with OVCAR-5 it was -11.4%; in the assay on MOLT-4 it was 7.03%.
For the compound `Cc1nn(-c2ccc(F)cc2)c2nc[nH]c(=O)c12` [Compound 3, 1–(4-Fluorophenyl)-3-methyl-1H-pyrazolo[3,4-d]pyrimidin-4(5H)-one], the inhibition at 10 µM in the assay on SK-MEL-2 is -5.1%; in the assay with HCC-2998, -2.16%; in the assay with UACC-257, -8.15%; in the assay on NCI-H460, -9.62%; in the assay with ACHN, -4.68%; in the assay on KM12, 1.48%. Besides, the inhibition at 10 µM is -12.3% with SW-620; 4.09% with NCI-H23; 1.46% with PC-3; -11.4% in the assay on RXF 393; -10.2% with RPMI-8226; -7.05% with MDA-MB-435. In addition, the inhibition at 10 µM with U251 was -1.7%; in the assay with SR it was -1.58%; in the assay on HT29, 3.83%; in the assay on SF-295, -4.14%; in the assay with SK-MEL-5, 0.31%; in the assay with SF-268 it was -1.71%. Also, the inhibition at 10 µM in the assay on NCI/ADR-RES is -1.22%; in the assay on OVCAR-5, -10.4%; in the assay on MOLT-4, 3.3%.
With `Cc1nn(-c2ccc(F)cc2)c2ncnc(Nc3ccc(F)c(Cl)c3)c12` [Compound 7d, N-(3-Chloro-4-fluorophenyl)-1–(4-fluorophenyl)-3-methyl-1H-pyrazolo[3,4-d] pyrimidin-4-amine], the inhibition at 10 µM in the assay with SK-MEL-2 was 2.61%; in the assay with HCC-2998, 1.79%; in the assay on UACC-257, -1.41%; in the assay with NCI-H460 it was 58.5%; with ACHN, 60.4%; in the assay with KM12, 1.96%. The inhibition at 10 µM in the assay on SW-620 was 11.1%; with NCI-H23, 7.53%; with PC-3, 17.2%; in the assay on RXF 393, -0.39%; with RPMI-8226 it was 9.77%; in the assay on MDA-MB-435, 0.1%. For the same compound, the inhibition at 10 µM in the assay on U251 was 24%; with SR it was 25.4%; with HT29 it was 14.4%; in the assay on SF-295, 40%; in the assay with SK-MEL-5, -0.44%; in the assay on SF-268, 3.94%. Moreover, the figures for the inhibition at 10 µM with NCI/ADR-RES, in the assay on OVCAR-5 and with MOLT-4 were 5.13%, 4.92% and 4.27%, respectively.
Regarding `Cc1nn(-c2ccc(F)cc2)c2ncnc(NN)c12` [Compound 9, 1–(4-Fluorophenyl)-4-hydrazinyl-3-methyl-1H-pyrazolo[3,4-d]-pyrimidine], the inhibition at 10 µM with SK-MEL-2 was 18.3%; in the assay with HCC-2998, 5.1%; in the assay on UACC-257 it was -3.21%; with NCI-H460 it was -11.7%; in the assay with ACHN it was 2.07%; with KM12 it was 3.79%. In addition, the inhibition at 10 µM with SW-620 was -8.79%; with NCI-H23, 19.1%; with PC-3 it was 13.8%; with RXF 393, 5.47%; with RPMI-8226, -6.21%; in the assay with MDA-MB-435 it was -9.22%. Also, the inhibition at 10 µM in the assay on U251 was 9.85%; with SR it was 20.2%; in the assay with HT29 it was 1.62%; in the assay with SF-295, -3.92%; with SK-MEL-5, 3.85%; with SF-268, 25.6%. Besides, the figures for the inhibition at 10 µM in the assay with NCI/ADR-RES, in the assay with OVCAR-5 and in the assay with MOLT-4 were 3.79%, -7.64% and 22.7%, respectively.
